Laboratory results as given in US9676732B2, “Ethynyl derivatives” (Hoffmann-La Roche Inc., priority 2013, dated 2017).

Molecular target: human mGlu4 receptor (Homo sapiens (Human), UniProt Q14833)
Assay: Ca2+ mobilization in vitro assay on recombinant human mGlu4 expressed in HEK293 cells (mGlu4 PAM)
Type: cell-based
Details: for EC50: HEK293 cells stably expressing human mGlu4, L-AP4 added at EC20, read-out: EC50 (nM) mGlu4PAM; for Eff. (%): maximal response in % of the maximal stimulatory effect obtained with saturating concentrations of L-AP4
Method: Determination of EC50 Values Using a Ca2+ Mobilization In Vitro Assay on Recombinant Human mGlu4 Expressed in HEK293 Cells:
A monoclonal HEK-293 cell line stably transfected with a cDNA encoding for the human mGlu4 receptor was generated; for the work with mGlu4 Positive Allosteric Modulators (PAMs), a cell line with low receptor expression levels and low constitutive receptor activity was selected to allow the differentiation of agonistic versus PAM activity. Cells were cultured according to standard protocols (Freshney, 2000) in Dulbecco's Modified Eagle Medium with high glucose supplemented with 1 mM glutamine, 10% (vol/vol) heat-inactivated bovine calf serum, Penicillin/Streptomycin, 50 μg/ml hygromycin and 15 μg/ml blasticidin (all cell culture reagents and antibiotics from Invitrogen, Basel, Switzerland).
About 24 hrs before an experiment, 5×10^4 cells/well were seeded in poly-D-lysine coated, black/clear-bottomed 96-well plates. The cells were loaded with 2.5 μM Fluo-4AM in loading buffer (1×HBSS, 20 mM HEPES) for 1 hr at 37° C. and washed five times with loading buffer. The cells were transferred into a Functional Drug Screening System 7000 (Hamamatsu, Paris, France), and 11 half logarithmic serial dilutions of test compound at 37° C. were added and the cells were incubated for 10-30 min. with on-line recording of fluorescence. Following this pre-incubation step, the agonist (2S)-2-amino-4-phosphonobutanoic acid (L-AP4) was added to the cells at a concentration corresponding to EC20 with on-line recording of fluorescence; in order to account for day-to-day variations in the responsiveness of cells, the EC20 of L-AP4 was determined immediately ahead of each experiment by recording of a full dose-response curve of L-AP4.
Responses were measured as peak increase in fluorescence minus basal (i.e. fluorescence without addition of L-AP4), normalized to the maximal stimulatory effect obtained with saturating concentrations of L-AP4. Graphs were plotted with the % maximal stimulatory using XLfit, a curve fitting program that iteratively plots the data using Levenburg Marquardt algorithm. The single site competition analysis equation used was y=A+((B−A)/(1+((x/C)D))), where y is the % maximal stimulatory effect, A is the minimum y, B is the maximum y, C is the EC50, x is the log 10 of the concentration of the competing compound and D is the slope of the curve (the Hill Coefficient). From these curves the EC50 (drug concentration at which 50% of the maximal receptor activation was achieved), the Hill coefficient as well as the maximal response in % of the maximal stimulatory effect obtained with saturating concentrations of L-AP4 were calculated (see FIG. 1).
A depression of the signal observed after addition of the EC20 concentration of L-AP4 was indicative of an inhibitory activity of the test compound. • FIG. 1: Illustration of the experimental outline for mGlu4 PAM Ca2+ mobilization screening assay and the determination of EC50 and % Emax values.

Chain of human mGlu4 receptor (Q14833 33-912): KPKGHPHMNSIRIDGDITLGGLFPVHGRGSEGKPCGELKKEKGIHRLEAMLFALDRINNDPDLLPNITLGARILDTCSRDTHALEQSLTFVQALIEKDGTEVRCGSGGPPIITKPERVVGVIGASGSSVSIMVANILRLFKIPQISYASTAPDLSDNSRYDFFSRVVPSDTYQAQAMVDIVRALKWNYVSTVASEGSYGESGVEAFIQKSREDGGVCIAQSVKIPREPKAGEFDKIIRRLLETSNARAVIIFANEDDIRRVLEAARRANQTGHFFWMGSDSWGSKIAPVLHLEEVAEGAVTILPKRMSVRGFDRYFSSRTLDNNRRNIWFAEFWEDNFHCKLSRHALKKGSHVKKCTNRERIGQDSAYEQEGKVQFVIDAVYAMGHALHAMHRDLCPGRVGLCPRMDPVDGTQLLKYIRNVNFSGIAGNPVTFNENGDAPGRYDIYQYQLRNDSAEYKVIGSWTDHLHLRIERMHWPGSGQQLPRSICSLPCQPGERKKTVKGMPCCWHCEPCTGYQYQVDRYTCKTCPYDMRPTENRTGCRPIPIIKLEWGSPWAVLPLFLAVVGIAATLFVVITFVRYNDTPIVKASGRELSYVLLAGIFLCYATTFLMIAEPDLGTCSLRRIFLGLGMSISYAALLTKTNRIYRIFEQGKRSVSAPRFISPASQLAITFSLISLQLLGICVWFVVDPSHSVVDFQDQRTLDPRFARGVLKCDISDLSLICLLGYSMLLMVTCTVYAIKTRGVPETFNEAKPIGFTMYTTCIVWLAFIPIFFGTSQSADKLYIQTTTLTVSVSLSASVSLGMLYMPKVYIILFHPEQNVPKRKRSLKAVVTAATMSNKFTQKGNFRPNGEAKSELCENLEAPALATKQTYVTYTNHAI

Row | Compound | EC50 | Eff. (%)
1 | Cn1c(=O)n(-c2ccc(C#Cc3ccccc3)cc2Cl)c(=O)c2scnc21 [Example 52, 6-(2-Chloro-4-phenylethynyl-phenyl)-4-methyl-4H-thiazolo[4,5-d]pyrimidine-5,7-dione] | 200 nM | 110%
2 | Cn1c(=O)n(-c2c(F)cc(C#Cc3ccccc3)cc2F)c(=O)c2cccc(OCC(F)F)c21 [Example 74, 8-(2,2-Difluoroethoxy)-3-[2,6-difluoro-4-(2-phenylethynyl)phenyl]-1-methyl-quinazoline-2,4-dione] | 60 nM | 122%
3 | CC(C)n1c(=O)n(-c2c(F)cc(C#Cc3ccccc3)cc2C(F)(F)F)c(=O)c2ccccc21 [Example 72, 3-[2-Fluoro-4-(2-phenylethynyl)-6-(trifluoromethyl)phenyl]-1-isopropyl-quinazoline-2,4-dione] | 63 nM | 134%
4 | CC(C)n1c(=O)n(-c2ncc(C#Cc3cccnc3)cc2Cl)c(=O)c2nn(C)cc21 [Example 59, 6-[3-Chloro-5-[2-(3-pyridyl)ethynyl]-2-pyridyl]-4-isopropyl-2-methyl-pyrazolo[4,3-d]pyrimidine-5,7-dione] | 169 nM | 146%
5 | O=c1c2cccc3c2n(c(=O)n1-c1c(F)cc(C#Cc2cccnc2)cc1F)CC3 [Example 30, 2-(2,6-Difluoro-4-(pyridin-3-ylethynyl)phenyl)-5,6-dihydro-1H-pyrrolo[3,2,1-ij]quinazoline-1,3(2H)-dione] | 91 nM | 89%
6 | Cn1cc2c(n1)c(=O)n(-c1c(F)cc(C#Cc3ccccc3)cc1F)c(=O)n2C [Example 33, 6-[2,6-Difluoro-4-(2-phenylethynyl)phenyl]-2,4-dimethyl-pyrazolo[4,3-d]pyrimidine-5,7-dione] | 47 nM | 86%
7 | CC(C)c1cccc2c(=O)n(-c3ccc(C#Cc4ccccc4)cc3Cl)c(=O)n(C)c12 [Example 54, 3-[2-Chloro-4-(2-phenylethynyl)phenyl]-8-isopropyl-1-methyl-quinazoline-2,4-dione] | 179 nM | 97%
8 | Cc1csc2c(=O)n(-c3c(F)cc(C#Cc4cccnc4)cc3F)c(=O)n(C)c12 [Example 28, 3-[2,6-Difluoro-4-[2-(3-pyridyl)ethynyl]phenyl]-1,7-dimethyl-thieno[3,2-d]pyrimidine-2,4-dione] | 29 nM | 86%
9 | Cn1ncc2c1c(=O)n(-c1c(F)cc(C#Cc3ccccc3)cc1F)c(=O)n2C [Example 34, 6-[2,6-Difluoro-4-(2-phenylethynyl)phenyl]-1,4-dimethyl-pyrazolo[4,3-d]pyrimidine-5,7-dione] | 74 nM | 85%
10 | Cn1c(=O)n(-c2c(F)cc(C#Cc3ccccc3)cc2F)c(=O)c2nccc(Cl)c21 [Example 61, 8-Chloro-3-[2,6-difluoro-4-(2-phenylethynyl)phenyl]-1-methyl-pyrido[3,2-d]pyrimidine-2,4-dione] | 91 nM | 129%
11 | CC(C)n1c(=O)n(-c2c(F)cc(C#Cc3cccnc3)cc2Cl)c(=O)c2nn(C)cc21 [Example 58, 6-[2-Chloro-6-fluoro-4-[2-(3-pyridyl)ethynyl]phenyl]-4-isopropyl-2-methyl-pyrazolo[4,3-d]pyrimidine-5,7-dione] | 37 nM | 120%
12 | Cc1cccc2c(=O)n(-c3c(F)cc(C#Cc4cccnc4)cc3Cl)c(=O)n(C)c12 [Example 43, 3-[2-Chloro-6-fluoro-4-[2-(3-pyridyl)ethynyl]phenyl]-1,8-dimethyl-quinazoline-2,4-dione] | 74 nM | 107%
13 | Cn1c(=O)n(-c2ccc(C#Cc3ccccc3)cc2Cl)c(=O)c2cncnc21 [Example 17, 3-[2-Chloro-4-(2-phenylethynyl)phenyl]-1-methyl-pyrimido[4,5-d]pyrimidine-2,4-dione] | 143 nM | 101%
14 | COc1cccc2c(=O)n(-c3c(F)cc(C#Cc4ccccc4)cc3F)c(=O)n(C)c12 [Example 70, 3-[2,6-Difluoro-4-(2-phenylethynyl)phenyl]-8-methoxy-1-methyl-quinazoline-2,4-dione] | 38 nM | 152%
15 | COCCn1c(=O)n(-c2ccc(C#Cc3ccccc3)cc2Cl)c(=O)c2ccccc21 [Example 50, 3-[2-Chloro-4-(2-phenylethynyl)phenyl]-1-(2-methoxyethyl)quinazoline-2,4-dione] | 499 nM | 110%
16 | Cc1cccc2c(=O)n(-c3ncc(C#Cc4ccccc4)cc3F)c(=O)n(C)c12 [Example 49, 3-[3-Fluoro-5-(2-phenylethynyl)-2-pyridyl]-1,8-dimethyl-quinazoline-2,4-dione] | 302 nM | 111%
17 | CCn1c(=O)n(-c2ccc(C#Cc3ccccc3)cc2Cl)c(=O)c2ccccc21 [Example 14, 3-[2-Chloro-4-(2-phenylethynyl)phenyl]-1-ethyl-quinazoline-2,4-dione] | 172 nM | 97%
18 | Cn1c(=O)n(-c2ccc(C#Cc3ccccc3)cc2Cl)c(=O)c2sc(N3CCOCC3)nc21 [Example 51, 6-[2-Chloro-4-(2-phenylethynyl)phenyl]-4-methyl-2-morpholino-thiazolo[4,5-d]pyrimidine-5,7-dione] | 164 nM | 127%
19 | Cn1cnc2c1c(=O)n(-c1c(F)cc(C#Cc3ccccc3)cc1F)c(=O)n2C [Example 69, 1-[2,6-Difluoro-4-(2-phenylethynyl)phenyl]-3,7-dimethyl-purine-2,6-dione] | 50 nM | 113%
20 | CC(C)n1c(=O)n(-c2ncc(C#Cc3ccccc3)cc2Cl)c(=O)c2ccccc21 [Example 45, 3-[3-Chloro-5-(2-phenylethynyl)-2-pyridyl]-1-isopropyl-quinazoline-2,4-dione] | 137 nM | 92%
21 | O=c1c2ccccc2n(C2COC2)c(=O)n1-c1c(F)cc(C#Cc2ccccc2)cc1F [Example 66, 3-[2,6-Difluoro-4-(2-phenylethynyl)phenyl]-1-(oxetan-3-yl)quinazoline-2,4-dione] | 75 nM | 184%
22 | CC(C)n1c(=O)n(-c2ccc(C#Cc3cccnc3)cc2Cl)c(=O)c2nccnc21 [Example 22, 3-[2-Chloro-4-[2-(3-pyridyl)ethynyl]phenyl]-1-isopropyl-pteridine-2,4-dione] | 167 nM | 88%
23 | Cn1c(=O)n(-c2ncc(C#Cc3ccccc3)cc2Cl)c(=O)c2ccccc21 [Example 44, 3-[3-Chloro-5-(2-phenylethynyl)-2-pyridyl]-1-methyl-quinazoline-2,4-dione] | 372 nM | 180%
24 | CC(C)n1c(=O)n(-c2c(F)cc(C#Cc3ccccc3)cc2F)c(=O)c2nsnc21 [Example 40, 6-[2,6-Difluoro-4-(2-phenylethynyl)phenyl]-4-isopropyl-[1,2,5]thiadiazolo[3,4-d]pyrimidine-5,7-dione] | 23 nM | 104%
25 | Cn1c(=O)n(-c2ccc(C#Cc3ccccc3)cc2Cl)c(=O)c2nccnc21 [Example 15, 3-[2-Chloro-4-(2-phenylethynyl)phenyl]-1-methyl-pteridine-2,4-dione] | 110 nM | 111%
26 | CC(C)n1c(=O)n(-c2c(F)cc(C#Cc3ccccc3)cc2F)c(=O)c2c[nH]nc21 [Example 64, 5-[2,6-Difluoro-4-(2-phenylethynyl)phenyl]-7-isopropyl-2H-pyrazolo[3,4-d]pyrimidine-4,6-dione] | 121 nM | 120%
27 | Cn1c(=O)n(-c2ncc(C#Cc3ccccc3)cc2C(F)(F)F)c(=O)c2ccccc21 [Example 48, 1-Methyl-3-[5-(2-phenylethynyl)-3-(trifluoromethyl)-2-pyridyl]quinazoline-2,4-dione] | 175 nM | 95%
28 | Cc1cccc2c(=O)n(-c3ccc(C#Cc4ccccc4)cc3Cl)c(=O)n(C)c12 [Example 2, 3-[2-Chloro-4-(2-phenylethynyl)phenyl]-1,8-dimethyl-quinazoline-2,4-dione] | 94 nM | 99%
29 | Cc1csc2c(=O)n(-c3ccc(C#Cc4ccccc4)cc3Cl)c(=O)n(C)c12 [Example 20, 3-[2-Chloro-4-(2-phenylethynyl)phenyl]-1,7-dimethyl-thieno[3,2-d]pyrimidine-2,4-dione] | 50 nM | 74%
